The values below come from paper PMC5429603, “Discovery and characterization of verinurad, a potent and specific inhibitor of URAT1 for the treatment of hyperuricemia and gout” (Scientific Reports, 2017).

The structures appear in SMILES notation.

Experiment [1] deals with T1, human URAT1 h-T21A (Homo sapiens, UniProt Q96S37, T21A).
T1 construct: expressed in transfected cells; host or cells: HEK-293T
The experiment in a line: URAT1 activity assay, h-T21A. In kind it is cell-based. Conditions: TM1 point mutant, read-out: Verinurad affinity (IC50). An excerpt:
(§1) Human URAT1 (GenBank BC053348.1, Homo sapiens SLC22A12), rat URAT1 (NCBI NM_001034943.1, Rattus norvegicus Slc22a12) and human OAT4 (NCBI NM_018484.2, Homo sapiens SLC22A11) genes were purchased from Origene Technologies, Inc. and subcloned into pCMV6/neo using NotI. Where indicated, controls transfections used pCMV6/neo. Mutants were produced by site-directed mutagenesis using the QuikChange Lightning Multi Site-Directed Mutagenesis Kit (Agilent Technologies). […] Mutagenic primer sequences are provided in ref. [15] and mutagenic primer sequences for previously unreported mutants shown in Supplementary Table 1. All constructs used in this study were untagged. Human OAT1 was purchased from Fisher Scientific (catalog # MHS1010–7508183 in pSPORT6, NCBI NM_153276.2, Homo sapiens SLC22A6).
(§2) HEK-293T cells were maintained in DMEM/high glucose/L-glutamine/HEPES supplemented with 1 mM sodium pyruvate (Life Technologies) and 10% FBS (PAA Laboratories) at 37 °C in 5% CO2. […]
(§3) URAT1 and OAT4 activity assays were performed in assay buffer consisting of 25 mM MES pH 5.5 (from a 1 M MES solution [Sigma] adjusted to pH 5.5 with sodium hydroxide), 125 mM sodium gluconate, 4.8 mM potassium gluconate, 1.2 mM monobasic potassium phosphate, 1.2 mM magnesium sulfate, 1.3 mM calcium gluconate and 5.6 mM glucose. […] Each treatment was measured in triplicate.

Experiment [2] relates to healthy human volunteers. The arrangement: method as in PMID 28744099. Conditions: humans; cited from earlier work.
The target in experiment [3] is T2, human URAT1 h-V18L (Homo sapiens, UniProt Q96S37, V18L).
T2 construct: expressed in transfected cells; host or cells: HEK-293T
The experiment in a line: URAT1 activity assay, h-V18L. In kind it is cell-based. The conditions noted are these: TM1 point mutant, read-out: Verinurad affinity (IC50).
Excerpt: as §1, §2, §3

Experiment [4] deals with T3, human OAT1 (Homo sapiens, UniProt Q4U2R8).
T3 construct: host or cells: HEK-293T
Kind of experiment: OAT1 activity assay (carboxyfluorescein transport). In kind it is cell-based. Here is the method: DNA (10 μg) was mixed with 30 μl of […] Gold (Boca Scientific) in 2 ml OptiMem (Life Technologies). […] The cells were assayed the following day. OAT1-expressing cells were assayed in a buffer containing 20 mM HEPES (from a 1 M solution at pH 7.3; USB Corporation), 130 mM sodium chloride, 4 mM potassium chloride, 1 mM magnesium sulfate, 1 mM calcium chloride, 1 mM sodium phosphate dibasic and 18 mM glucose. […] Cells were then solubilized in 0.1 N sodium hydroxide prior to fluorimetry measurements. Each treatment was measured in triplicate.

The target of experiment [5] is T4, human URAT1 h-S35N (Homo sapiens, UniProt Q96S37, S35N).
T4 construct: expressed in transfected cells; host or cells: HEK-293T
Kind of experiment: URAT1 activity assay, h-S35N. In kind it is cell-based.
Excerpt: as §1, §2, §3

Experiment [6] has as its target T5, human URAT1 h-M22V (Homo sapiens, UniProt Q96S37, M22V).
T5 construct: expressed in transfected cells; host or cells: HEK-293T
The experiment in a line: URAT1 activity assay, h-M22V. In kind it is cell-based. The conditions noted are these: TM1 point mutant, read-out: Verinurad affinity (IC50).
Excerpt: as §1, §2, §3

Experiment [7] concerns the target T6, human URAT1 h-S27P (Homo sapiens, UniProt Q96S37, S27P).
T6 construct: expressed in transfected cells; host or cells: HEK-293T
The experiment in a line: URAT1 activity assay, h-S27P. In kind it is cell-based.
Excerpt: as §1, §2, §3

The target in experiment [8] is T7, human URAT1-F365Y (Homo sapiens, UniProt Q96S37, F365Y).
T7 construct: expressed in transfected cells; host or cells: HEK-293T
The experiment in a line: URAT1 activity assay, h-F365Y. In kind it is cell-based.
Excerpt: as §1, §2, §3

For experiment [9], the target named is T8, human URAT1 h-C32T (Homo sapiens, UniProt Q96S37, C32T).
T8 construct: expressed in transfected cells; host or cells: HEK-293T
Kind of experiment: URAT1 activity assay, h-C32T. In kind it is cell-based.
Excerpt: as §1, §2, §3

Experiment [10] concerns the target T9, rat URAT1 r-N35S/Y365F/M481I (Rattus norvegicus, UniProt Q3ZAV1, M481I/N35S/Y365F).
T9 construct: expressed in transfected cells; host or cells: HEK-293T
T9 sequence (Q3ZAV1 1-553 N35S/Y365F/M481I): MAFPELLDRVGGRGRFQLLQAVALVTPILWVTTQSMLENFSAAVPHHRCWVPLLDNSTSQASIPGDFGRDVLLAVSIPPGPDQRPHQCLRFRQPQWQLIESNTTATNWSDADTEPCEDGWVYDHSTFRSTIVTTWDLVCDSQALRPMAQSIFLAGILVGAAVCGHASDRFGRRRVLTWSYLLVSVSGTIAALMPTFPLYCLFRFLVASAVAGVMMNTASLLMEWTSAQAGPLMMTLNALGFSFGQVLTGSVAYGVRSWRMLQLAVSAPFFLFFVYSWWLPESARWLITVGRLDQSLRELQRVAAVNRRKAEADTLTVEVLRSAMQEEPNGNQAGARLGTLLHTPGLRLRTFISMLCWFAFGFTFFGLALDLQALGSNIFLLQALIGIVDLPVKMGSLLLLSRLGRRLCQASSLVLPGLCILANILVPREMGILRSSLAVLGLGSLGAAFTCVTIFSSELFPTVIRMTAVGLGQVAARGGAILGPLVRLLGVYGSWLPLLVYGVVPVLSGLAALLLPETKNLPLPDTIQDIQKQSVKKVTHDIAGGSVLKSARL
Kind of experiment: URAT1 activity assay, r-N35S/Y365F/M481I. In kind it is cell-based.
Excerpt: as §1
HEK-293T cells were maintained in DMEM/high glucose/L-glutamine/HEPES supplemented with 1 mM sodium pyruvate (Life Technologies) and 10% FBS (PAA Laboratories) at 37 °C in 5% CO2. To express URAT1, OAT4 or OAT1, plasmids were reverse transfected into HEK-293T cells. DNA (10 µg) was mixed with 30 µl of DreamFect Gold (Boca Scientific) in 2 ml OptiMem (Life Technologies). After 20 minutes, 18 ml of media containing 2 × 10^7 cells in suspension was added and mixed, and 200 µl per well were plated onto white clear-bottomed poly-D-lysine coated 96-well plates (BD Biosciences). The cells were assayed the following day.
as §3, with “glucose. URAT1 inhibitors were serially diluted into assay buffer and added to the cells for 5 minutes prior to addition of substrate. URAT1-expressing cells were incubated with 100 µM ^14C-uric acid for 10 minutes and OAT4-expressing cells were incubated with 20 µM carboxyfluorescein (Life Technologies, Inc.) for 5 minutes.” for “glucose.”

[11] abbreviates: TM1 point mutant, read-out: Verinurad affinity (IC50).

The IC50 is the concentration that gives 50% inhibition.

T7 sequence (Q96S37 whole entry F365Y): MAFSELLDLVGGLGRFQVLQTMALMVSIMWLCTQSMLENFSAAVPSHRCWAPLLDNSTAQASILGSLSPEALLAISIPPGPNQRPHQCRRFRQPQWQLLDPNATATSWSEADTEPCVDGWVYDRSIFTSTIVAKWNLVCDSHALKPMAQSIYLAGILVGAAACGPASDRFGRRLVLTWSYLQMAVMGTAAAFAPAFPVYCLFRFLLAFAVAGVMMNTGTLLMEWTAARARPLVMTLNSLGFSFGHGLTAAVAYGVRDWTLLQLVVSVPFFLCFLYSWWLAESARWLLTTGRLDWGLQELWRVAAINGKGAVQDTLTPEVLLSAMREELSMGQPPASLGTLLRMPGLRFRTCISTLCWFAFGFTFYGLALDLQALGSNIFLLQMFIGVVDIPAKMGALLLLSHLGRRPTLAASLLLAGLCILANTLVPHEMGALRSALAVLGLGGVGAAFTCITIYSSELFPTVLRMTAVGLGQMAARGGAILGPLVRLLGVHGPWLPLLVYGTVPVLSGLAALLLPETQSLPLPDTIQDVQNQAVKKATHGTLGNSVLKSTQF
T8 sequence (Q96S37 whole entry C32T): as the sequence (Q96S37 whole entry F365Y) above, with C32T, Y365F counted along it
T6 sequence (Q96S37 whole entry S27P): as the sequence (Q96S37 whole entry F365Y) above, with S27P, Y365F counted along it
T3 sequence (Q4U2R8 1-550 isoform Q4U2R8-2): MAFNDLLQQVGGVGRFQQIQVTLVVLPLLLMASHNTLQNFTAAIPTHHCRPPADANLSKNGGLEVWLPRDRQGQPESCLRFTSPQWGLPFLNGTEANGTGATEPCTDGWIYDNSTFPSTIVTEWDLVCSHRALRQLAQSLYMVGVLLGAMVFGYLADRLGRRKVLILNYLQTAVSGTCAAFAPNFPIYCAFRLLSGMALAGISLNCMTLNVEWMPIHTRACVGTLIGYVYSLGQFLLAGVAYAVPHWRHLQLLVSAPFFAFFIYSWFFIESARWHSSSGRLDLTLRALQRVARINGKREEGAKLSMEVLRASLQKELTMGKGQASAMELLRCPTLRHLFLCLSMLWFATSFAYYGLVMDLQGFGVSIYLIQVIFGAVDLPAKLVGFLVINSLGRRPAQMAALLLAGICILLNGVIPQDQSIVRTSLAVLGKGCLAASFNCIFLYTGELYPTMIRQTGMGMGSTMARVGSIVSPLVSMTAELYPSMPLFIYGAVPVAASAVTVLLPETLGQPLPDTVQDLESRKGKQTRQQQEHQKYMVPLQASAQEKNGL
T4 sequence (Q96S37 whole entry S35N): as the sequence (Q96S37 whole entry F365Y) above, with S35N, Y365F counted along it
T1 sequence (Q96S37 whole entry T21A): as the sequence (Q96S37 whole entry F365Y) above, with T21A, Y365F counted along it
T5 sequence (Q96S37 whole entry M22V): as the sequence (Q96S37 whole entry F365Y) above, with M22V, Y365F counted along it
T2 sequence (Q96S37 whole entry V18L): as the sequence (Q96S37 whole entry F365Y) above, with V18L, Y365F counted along it

As to `CC(C)(Sc1ccncc1-c1ccc(C#N)c2ccccc12)C(=O)O` [Verinurad, 2-((3-(4-cyanonaphthalen-1-yl)pyrindin-4-yl)thio)-2-methylpropanoic acid], the IC50 in experiment [1] was 26 ± 12 nM; in [3] it was 26 ± 15 nM; in experiment [4] (human OAT1 in HEK-293T, 20 µM carboxyfluorescein, read-out: IC50, inhibition of transport activity) it was 4600 ± 1400 nM; in experiment [5] (setting [11]), 360 ± 150 nM; in [6], 29 ± 13 nM; in experiment [7] (h-S27P, TM1 point mutant, read-out: Verinurad affinity (IC50)), 39 ± 9 nM. In addition, the IC50 turned out to be 4000 ± 1700 nM in experiment [8] (TM7 point mutant, read-out: Verinurad affinity (IC50)); 95 ± 26 nM in experiment [9] (setting [11]); 140 nM in experiment [10] (r-N35S/Y365F/M481I triple point mutant). Further, the “dose that significantly lowers sUA levels” value in experiment [2] is given as at least 5 mg. Also, the “fold lower affinity compared to URAT1” value in experiment [4] (human OAT1 vs human URAT1) was “approximately 200 fold”. For the same compound, the “fold lower affinity relative to human URAT1” value in [5] is 14 fold; in experiment [8], 160 fold. The “fold decrease in affinity” value in [7] (h-S27P vs human URAT1) is given as 1.6 fold. For the same compound, the “fold reduced affinity relative to human URAT1” value in [9] stood at 4 fold. Also, the “fold higher affinity compared to rat URAT1” value in experiment [10] (r-N35S/Y365F/M481I) is recorded as around 300 fold. The “fold lower affinity compared to human URAT1” value in experiment [10] (r-N35S/Y365F/M481I) turned out to be 6 fold.
